Test results published in US20120283216A1, “FUNGICIDAL 2-(BICYCLIC ARYLOXY)CARBOXAMIDES” (priority 2009, published 2012).

Experiments:
Type in all cases: in vivo
[1] = tested on: Blumeria graminis f. sp. tritici; test: Test A: wheat powdery mildew, preventive spray on wheat seedlings, visual disease rating; conditions: preventive spray at 40 ppm, rated 8 days after inoculation; for pest or weed control at 40 ppm: Blumeria graminis, 192 h, read-out: Test A disease control rating (100 = 100% disease control, 0 = no disease control relative to the controls)
From the text: General protocol for preparing test suspensions for Tests A-C: the test compounds were first dissolved in acetone in an amount equal to 11% of the final volume and then suspended at the desired concentration (in ppm) in acetone and purified water (50/50 mix by volume) containing 250 ppm of the surfactant Trem® 014 (polyhydric alcohol esters). The resulting test suspensions were then used in Tests A-C. Spraying a 40 ppm test suspension to the point of run-off on the test plants was the equivalent of a rate of 800 g/ha. The test suspension was sprayed to the point of run-off on wheat seedlings. The following day the seedlings were inoculated with a spore dust of Blumeria graminis f. sp. tritici, (the causal agent of wheat powdery mildew) and incubated in a growth chamber at 20° C. for 8 days, after which time disease ratings were visually made. Results for Tests A-C are given in Table A. In the Table, a rating of 100 indicates 100% disease control and a rating of 0 indicates no disease control (relative to the controls). A dash (-) indicates no test results. All results are from applications of 40 ppm.

Septoria tritici = test: Test B: wheat leaf blotch, preventive spray on wheat seedlings, visual disease rating; conditions: preventive spray at 40 ppm, rated after 48 h + 19 days; for pest or weed control at 40 ppm: Zymoseptoria tritici, 504 h, read-out: Test B disease control rating (100 = 100% disease control, 0 = no disease control relative to the controls)
From the text: General protocol for preparing test suspensions for Tests A-C: the test compounds were first dissolved in acetone in an amount equal to 11% of the final volume and then suspended at the desired concentration (in ppm) in acetone and purified water (50/50 mix by volume) containing 250 ppm of the surfactant Trem® 014 (polyhydric alcohol esters). The resulting test suspensions were then used in Tests A-C. Spraying a 40 ppm test suspension to the point of run-off on the test plants was the equivalent of a rate of 800 g/ha. The test suspension was sprayed to the point of run-off on wheat seedlings. The following day the seedlings were inoculated with a spore suspension of Septoria tritici (the causal agent of wheat leaf blotch) and incubated in a saturated atmosphere at 20° C. for 48 h, and then moved to a growth chamber at 20° C. for 19 days, after which time disease ratings were visually made. Results for Tests A-C are given in Table A. In the Table, a rating of 100 indicates 100% disease control and a rating of 0 indicates no disease control (relative to the controls). A dash (-) indicates no test results. All results are from applications of 40 ppm.

Botrytis cinerea = test: Test C: tomato botrytis, preventive spray on tomato seedlings, visual disease rating; conditions: preventive spray at 40 ppm, rated after 48 h + 3 days; for pest or weed control at 40 ppm: Botrytis cinerea, 120 h, read-out: Test C disease control rating (100 = 100% disease control, 0 = no disease control relative to the controls)
From the text: General protocol for preparing test suspensions for Tests A-C: the test compounds were first dissolved in acetone in an amount equal to 11% of the final volume and then suspended at the desired concentration (in ppm) in acetone and purified water (50/50 mix by volume) containing 250 ppm of the surfactant Trem® 014 (polyhydric alcohol esters). The resulting test suspensions were then used in Tests A-C. Spraying a 40 ppm test suspension to the point of run-off on the test plants was the equivalent of a rate of 800 g/ha.
The test suspension was sprayed to the point of run-off on tomato seedlings. The following day the seedlings were inoculated with a spore suspension of Botrytis cinerea (the causal agent of tomato botrytis) and incubated in saturated atmosphere at 20° C. for 48 h, and then moved to a growth chamber at 27° C. for 3 additional days, after which time disease ratings were visually made.
Results for Tests A-C are given in Table A. In the Table, a rating of 100 indicates 100% disease control and a rating of 0 indicates no disease control (relative to the controls). A dash (-) indicates no test results. All results are from applications of 40 ppm.

SMILES | Test A disease control rating (100 = 100% disease control, 0 = no disease control relative to the controls) [1] [%] | Test B disease control rating (100 = 100% disease control, 0 = no disease control relative to the controls) (Septoria tritici) [%] | Test C disease control rating (100 = 100% disease control, 0 = no disease control relative to the controls) (Botrytis cinerea) [%] | pest or weed control at 40 ppm [1] [%] | pest or weed control at 40 ppm (Septoria tritici) [%] | pest or weed control at 40 ppm (Botrytis cinerea) [%]
CCCc1ccc2ccc(OC(CC)C(=O)NC(C)(C)COC)cc2c1 (stereo not drawn) [Compound 143] | 98 | 100 | 99 | – | – | –
C#Cc1ccc2ccc(OC(CC)C(=O)NC(C)(C)COC)cc2c1 (stereo not drawn) [Compound 97, 2-[(7-ethynyl-2-naphthalenyl)oxy]-N-(2-methoxy-1,1-dimethylethyl)-butanamide] | – | – | – | 100 | 100 | 99
C#CC(C)(C)NC(=O)C(CC)Oc1ccc2ccc(CCC)cc2c1 (stereo not drawn) [Compound 144] | 99 | 93 | 98 | – | – | –
COC(Oc1cnc2ccc(C#C[Si](C)(C)C)cc2c1)C(=O)NC(C)(C)C (stereo not drawn) [Compound 161] | 0 | 100 | 99 | – | – | –
COC(Oc1ccc2ccc(Br)cc2c1)C(=O)NC(C)(C)C#N (stereo not drawn) [Compound 93] | 95 | 100 | 100 | – | – | –
CCC(Oc1ccc2ccc(C#N)cc2c1)C(=O)NC(C)(C)COCOC (stereo not drawn) [Compound 22, 2-[(7-cyano-2-naphthalenyl)oxy]-N-[2-(methoxymethoxy)-1,1-dimethylethyl]butanamide] | – | – | – | 93 | 100 | 100
CCC(Oc1ccc2ccc(Br)cc2c1)C(=O)NC(C)(C)CF (stereo not drawn) [Compound 26, 2-[(7-bromo-2-naphthalenyl)oxy]-N-(2-fluoro-1,1-dimethylethyl)butanamide] | – | – | – | 100 | 100 | 99
CCC(Oc1ccc2ccc(Br)cc2c1)C(=O)NC(C)(C)CC (stereo not drawn) [Compound 102] | 0 | 96 | 61 | – | – | –
CC#Cc1ccc2ncc(OC(OC)C(=O)NC(C)(C)COC)cc2c1 (stereo not drawn) [Compound 158] | 98 | 38 | 99 | – | – | –
CCC(Oc1ccc2ccc(Br)cc2c1)C(=O)NC(C)(C)C(F)(F)F (stereo not drawn) [Compound 27] | 99 | 86 | 98 | – | – | –
CC(=O)C(Oc1ccc2ccc(Br)cc2c1)C(=O)NC(C)(C)C (stereo not drawn) [Compound 32] | – | – | – | 0 | 0 | 26
C#CC(C)(C)NC(=O)C(COC)Oc1cnc2ccc(Br)cc2c1 (stereo not drawn) [Compound 36] | 0 | 89 | 36 | – | – | –
C#Cc1ccc2ccc(OC(OC)C(=O)NC(C)(C)COC)cc2c1 (stereo not drawn) [Compound 106, 2-[(7-ethynyl-2-naphthalenyl)oxy]-2-methoxy-N-(2-methoxy-1,1-dimethylethyl)acetamide] | – | – | – | 100 | 100 | 99
CCC(Oc1ccc2ccc(Br)cc2c1)C(=O)NC(C)(C)COC=O (stereo not drawn) [Compound 18] | 99 | 99 | 100 | – | – | –
CCC(Oc1ccc2ccc(Br)cc2c1)C(=O)NC(C)(C)C#N (stereo not drawn) [Compound 1] | 91 | 100 | 100 | – | – | –
CCC(Oc1ccc2ccc(O)cc2c1)C(=O)NC(C)(C)C (stereo not drawn) [Compound 89] | – | – | – | 0 | 63 | 86
C#Cc1ccc2ccc(OC(CC)C(=O)NC(C)(C)C#CC)cc2c1 (stereo not drawn) [Compound 111, N-(1,1-dimethyl-2-butyn-1-yl)-2-[(7-ethynyl-2-naphthalenyl)oxy]butanamide] | – | – | – | 100 | 100 | 100
CCC(Oc1cnc2ccc(OC)cc2c1)C(=O)NC(C)(C)COC (stereo not drawn) [Compound 146] | 0 | 100 | 99 | – | – | –
CCC(Oc1cnc2ccc(I)cc2c1)C(=O)NC(C)(C)CO (stereo not drawn) [Compound 52] | 0 | 45 | 82 | – | – | –
CCC(Oc1ccc2ccc(Br)cc2c1)C(=O)NC(C)(C)CSC(C)=O (stereo not drawn) [Compound 28] | 91 | 99 | 99 | – | – | –
CCOc1ccc2ccc(OC(CC)C(=O)NC(C)(C)C#N)cc2c1 (stereo not drawn) [Compound 75, N-(1-cyano-1-methylethyl)-2-[(7-ethoxy-2-naphthalenyl)oxy]butanamide] | – | – | – | 100 | 100 | 100
CCC(Oc1cnc2ccc(Br)cc2c1)C(=O)NC(C)(C)COC (stereo not drawn) [Compound 48] | 96 | 99 | 99 | – | – | –
C#CC(C)(C)NC(=O)C(CC)Oc1cnc2ccc(F)cc2c1 (stereo not drawn) [Compound 47] | 0 | 20 | 70 | – | – | –
C#CCOc1ccc2ccc(OC(OC)C(=O)NC(C)(C)CC)cc2c1 (stereo not drawn) [Compound 137] | 87 | 94 | 99 | – | – | –
C#Cc1ccc2ncc(OC(CC)C(=O)NCC(C)(C)C)cc2c1 (stereo not drawn) [Compound 153] | 0 | 92 | 93 | – | – | –
C#CCOc1ccc2ccc(OC(CC)C(=O)NC(C)(C)C#C)cc2c1 (stereo not drawn) [Compound 135] | 0 | 98 | 99 | – | – | –
